Test results from patent US20240287194A1, “Targeting Extracellular Matrix Proteins to Regulate NK Cell Function in Peripheral Tissues” (The General Hospital Corporation, priority 2021, published 2024).

Key:
[1] = tested on: B2m^−/− B16-F10 melanoma cells; experiment: Subcutaneous (S.C.) B2m−/− B16 melanoma model; format: in vivo, mice; conditions: for proportions of tumor infiltrating Tregs, macrophages and MDSCs: B2m−/− B16 melanoma at the endpoint; for NK cell infiltration of the tumor parenchyma: B2m−/− B16 melanoma, day 3 post-S.C. injection; for T cell recruitment into the B2m−/− B16 tumors: CD3+ T cells, day 3 post S.C. injection; for IFNγ expression of tumor NK cells / PD-1 expression of tumor NK cells / granzyme B expression of tumor NK cells: NK cells from B2m−/− B16 melanoma, day 19-21 post-S.C. injection; for survival / B2m−/− melanoma growth in the skin: S.C. B2m−/− B16 in WT mice, losartan 60 mg/kg or DHB 40 mg/kg I.P. every day; for B2m−/− melanoma growth in the skin: control IgG vs anti-NK1.1
Protocol: All tumor experiments were performed in eight to twelve-week-old C57BL/6 female WT or Ncr1^iCre ROSA^mT-mG mice. For the S.C. tumor model, 2.5×10^5 B16-F10 WT or B2m^−/− cells were subcutaneously injected into the shaved flanks of mice. Tumor growth was measured every other day using a digital caliper starting from day seven. Tumor volume was calculated as follows: […]
To inhibit collagen deposition in and around the tumor, mice were administered with 60 mg/kg of Losartan Potassium (Fisher Scientific, catalog no. L02325G) or 40 mg/kg of 3,4-dihydroxybenzoic acid (DHB) (Sigma-Aldrich, catalog no. 37580) in 100 μL of sterile 1×PBS while the control mice were administered with the equivalent volume of sterile 1×PBS. These drugs were injected I.P. every day for the duration of the study starting the day of tumor inoculation.
For the collagenase/hyaluronidase experiment, 2.5×10^5 B16-F10 B2m^−/− cells were resuspended in 1×collagenase and hyaluronidase mix (Stemcell, catalog no. 07912) and were subcutaneously injected into the shaved flanks of mice. To deplete collagen within the tumor, mice were administered with 1×collagenase and hyaluronidase mix (Stemcell, catalog no. 07912) in 100 μL of sterile 1×PBS while control mice were administered with the equivalent volume of sterile 1×sPBS. These enzymes were injected via intratumoral (I.T.) route starting on the day of tumor inoculation (day 0), day 1, day 2, day 3, day 4 and then every other day (day 6, 8, 10, etc.) until the end of the study. Except for day 3 tumor harvest, mice were euthanized when a tumor reached 2 cm in diameter in accordance with IACUC protocols. For early time point tumor analysis, specific Ncr1^iCre, ROSA^mT-mG mice from PBS, Losartan and DHB group were euthanized on day 3 post tumor inoculation, the implanted tumor harvested and fixed in pre-chilled 95% ethanol overnight at 4° C. before subjecting them to subsequent processing.
Terminal subcutaneous tumors were excised with the skin and weighed before cutting in half. One half was placed in appropriate fixative while the other half was separated from the skin and chopped with scissors into ˜1 mm pieces. These were transferred to a 15 mL tube with 10 mL digest buffer (RPMI 1640 (Life Technologies, catalog no. 21870076), 200 U/mL Collagenase IV (Worthington Biochemical, Lakewood, NJ, USA)) and incubated for 2 hours at 37° C. with shaking. Following incubation, digested tumor was poured onto a […] strainer placed in a 50 mL tube. The 15 mL tube was rinsed with ˜3 mL of 1×PBS/2% FCS/5 mM EDTA and added to the digested sample. The tumor was mashed with a plunger through the […] strainer which was then rinsed ˜3 times with a small volume of 1×PBS/2% FCS/5 mM EDTA. The tumor-infiltrating CD45^+ immune cells were isolated by magnetic-based positive selection using CD45 microbeads (Miltenyi Biotec, catalog no. 130-052-301) according to the manufacturer's protocol. The stained cells were passed through the LS columns (Miltenyi Biotec, catalog no. 130-042-401) placed between magnets for isolation of immune cells. The isolated CD45^+ cells were centrifuged at 300 g for 5 minutes at 4° C. and resuspended in 2.4G2 blocking solution before flow cytometry staining.
Mice were I.P. injected with 500 μg/mouse of IgG isotype control (Southern Biotech, Birmingham, AL, USA, catalog no. 0107-01) or depleting anti-NK1.1 antibody (clone PK136, BioXcell, West Lebanon, NH, USA, catalog no. BE0036) two days before tumor cell injection and 250 μg/mouse every other day starting the day of the tumor cell injection. For depletion of NK or T cells (anti-CD4 antibody, clone GK1.5, BioXcell; anti-CD8a antibody, clone YTS 169.4, BioXcell) in a skin transplant setting, 500 μg/mouse of each depleting antibody were injected the day of the transplant and 250 μg at days indicated in FIG. S5E. […]

[2] = tested on: Ly49H^+ splenic cNK cells; experiment: Splenic cNK cell co-culture with m157-MEF in the presence of ECM proteins (CD107a, IFNγ flow cytometry); format: cell-based, mice; conditions: for altering NK cell functions (CD107a, IFNγ): co-culture with m157-MEF
Protocol: (§1) Single-cell suspensions from all samples were prepared by straining through a 70 μm filter. 2.4G2 supernatant treated cells were stained in 1×PBS/2% FCS/5 mM EDTA with the appropriate surface antibodies (Table 2) for 30 minutes at 4° C., washed and analyzed by flow cytometry. For intracellular staining, cells were fixed and permeabilized using True-Nuclear Transcription Buffer set (Biolegend, catalog no. 424401) according to the manufacturer's protocol then incubated with appropriate antibodies (Table 2) for 60 min at RT, washed and analyzed by flow cytometry. For in vitro signaling experiments, following the specified time points, cells were fixed with an equal volume of pre-warmed 1×aldehyde based fixation buffer (Biolegend, catalog no. 420801) for 20 min at RT. Fixed cells were permeabilized by drop-wise addition of chilled methanol-based solution True-Phos Perm Buffer (Biolegend, catalog no. 425401) while mixed on a vortex. Cells were stored in-20° C. and dark for 1-3 days before washing them two times with ˜3 mL of 1×PBS/2% FCS/5 mM EDTA. Cells were subsequently stained with appropriate antibodies against surface markers and specific phosphorylated signaling proteins (Table 2) for 60 min at RT, washed and analyzed by flow cytometry. Cells were assayed on a BD LSRFortessa X-20 flow cytometer (BD Bioscience, Billerica, MA, USA) and data were analyzed using FlowJo software Version 10 (Tree Star, Ashlad, OR, USA). NK cells in WT non-reporting mice were identified as CD3^− NK1.1^+NKp46^+.
(§2) For in vitro experiments in the presence of ECM components, Collagen I (Rat tail, Sigma, catalog no. 08-115), collagen III (Human placenta, Sigma, catalog no. C4407), collagen IV (Mouse, Sigma, catalog no. C0543), Elastin (Mouse lung, Sigma, catalog no. E6402), Laminin (Mouse, Thermo Fisher, catalog no. 23017015) and Fibronectin (Rat plasma, Sigma, catalog no. F0635) were diluted in 1×PBS and coated at 20 μ ENREF 45 g/cm^2 in a 24 well tissue culture plate for 30 minutes at RT with gentle shaking followed by overnight at 4° C. Spleens from Ncr1^iCre, ROSA^mT-mG, WT or Lair1^−/− mice were harvested as described above. Then, 5×10^6 splenocytes resuspended in RPMI 10% FBS/1% P/S/20 mM Glutamine were mixed with 20 μg of respective ECM protein per well and were incubated at RT for 10 minutes. Splenocytes and ECM mix were plated onto the ECM-coated well and were incubated at 37° C./5% CO2 for 2 hours (short ECM exposure) or 17 hours (long ECM exposure). At the end of the incubation, 1×10^5 MEF (WT or m157) cells were added to each well to obtain a 50:1 splenocyte:MEF ratio. For cell signaling experiments, hydrogen peroxide (H2O2) at a final concentration of 2.5 mM or 1×10^5 MEF-m157 cells were added to each well except in “0 min” wells which were unstimulated and fixed immediately. Splenocytes were stimulated with 2.5 mM H2O2 for 2 min and 5 min or were co-cultured with MEF-m157 for 30 min and 60 min (signaling) or 7 hours (CD107a and IFN[…]) at 37° C./5% CO2. Splenocytes and MEF in co-culture were supplemented with mIL-12 (10 ng/mL, Biolegend, catalog no. 577002), mIL-15 (1 ng/mL, Shenandoah Biotechnology, catalog no. 200-07) and hIL-2 (Biolegend, catalog no. 589104; only long ECM exposure) as well as for CD107a/IFN experiments. 1 μL of anti-CD107a-BV421 (1D4B, Biolegend, catalog no. 121618), 1×Brefeldin A (Biolegend, catalog no. 420601) and 1×Monensin (Biolegend, catalog no. 420701) were added. Following the co-culture, cells were washed with 1×PBS/2% FCS/5 mM EDTA and the pellet was resuspended in 2.4G2 blocking solution before flow cytometry staining.

splenic cNK cells = experiment: Phospho-signaling in splenic cNK cells stimulated with H2O2 in the presence of ECM proteins; format: cell-based, mice
Protocol: as §1, §2

Molecule | proportions of tumor infiltrating Tregs, macrophages and MDSCs [1] | NK cell infiltration of the tumor parenchyma [1] | T cell recruitment into the B2m−/− B16 tumors [1] | IFNγ expression of tumor NK cells [1] | PD-1 expression of tumor NK cells [1] | granzyme B expression of tumor NK cells [1] | survival [1] | B2m−/− melanoma growth in the skin [1] | altering NK cell functions (CD107a, IFNγ) ([2]; 9 and 24 hours) | also measured
O=C(O)c1ccc(O)c(O)c1 [DHB, 3,4-dihydroxybenzoic acid] | remained unaltered or increased | highly infiltrated the tumor parenchyma | did not induce T cell recruitment | markedly elevated expression | markedly elevated expression | markedly elevated expression | significant survival benefit | protected the mice from B2m^−/− melanoma growth in the skin in an NK cell-dependent manner | – | –
CCCCc1nc(Cl)c(CO)n1Cc1ccc(-c2ccccc2-c2nn[nH]n2)cc1 [losartan, Losartan Potassium] | remained unaltered or increased | highly infiltrated the tumor parenchyma | did not induce T cell recruitment | markedly elevated expression | markedly elevated expression | markedly elevated expression | significant survival benefit | protected the mice from B2m^−/− melanoma growth in the skin in an NK cell-dependent manner | – | –
collagen IV: collagen IV (Mouse, Sigma), epidermal basement membrane protein | – | – | – | – | – | – | – | – | played a minor role | –
fibronectin: Fibronectin (Rat plasma, Sigma), epidermal basement membrane protein | – | – | – | – | – | – | – | – | played a minor role | –
laminin: Laminin (Mouse, Thermo Fisher), epidermal basement membrane protein | – | – | – | – | – | – | – | – | played a minor role | –
elastin: Elastin (Mouse lung, Sigma), dermal ECM protein (protein, UniProt P54320 28-860, looked up) Elastin: GGVPGAVPGGLPGGVPGGVYYPGAGIGGLGGGGGALGPGGKPPKPGAGLLGTFGAGPGGLGGAGPGAGLGAFPAGTFPGAGALVPGGAAGAAAAYKAAAKAGAGLGGVGGVPGGVGVGGVPGGVGVGGVPGGVGVGGVPGGVGGIGGIGGLGVSTGAVVPQVGAGIGAGGKPGKVPGVGLPGVYPGGVLPGTGARFPGVGVLPGVPTGTGVKAKAPGGGGAFAGIPGVGPFGGQQPGVPLGYPIKAPKLPGGYGLPYTNGKLPYGVAGAGGKAGYPTGTGVGSQAAAAAAKAAKYGAGGAGVLPGVGGGGIPGGAGAIPGIGGIAGAGTPAAAAAAKAAAKAAKYGAAGGLVPGGPGVRLPGAGIPGVGGIPGVGGIPGVGGPGIGGPGIVGGPGAVSPAAAAKAAAKAAKYGARGGVGIPTYGVGAGGFPGYGVGAGAGLGGASPAAAAAAAKAAKYGAGGAGALGGLVPGAVPGALPGAVPAVPGAGGVPGAGTPAAAAAAAAAKAAAKAGLGPGVGGVPGGVGVGGIPGGVGVGGVPGGVGPGGVTGIGAGPGGLGGAGSPAAAKSAAKAAAKAQYRAAAGLGAGVPGFGAGAGVPGFGAGAGVPGFGAGAGVPGFGAGAGVPGFGAGAVPGSLAASKAAKYGAAGGLGGPGGLGGPGGLGGPGGLGGAGVPGRVAGAAPPAAAAAAAKAAAKAAQYGLGGAGGLGAGGLGAGGLGAGGLGAGGLGAGGLGAGGLGAGGLGAGGGVSPAAAAKAAKYGAAGLGGVLGARPFPGGGVAARPGFGLSPIYPGGGAGGLGVGGKPPKPYGGALGALGYQGGGCFGKSCGRKRK | – | – | – | – | – | – | – | – | – | pERK1/2 levels in NK cells (splenic cNK cells; H2O2 2.5 mM, 2 and 5 min): markedly reduced; pPLCγ1 levels in NK cells (splenic cNK cells; H2O2 2.5 mM, 2 and 5 min): markedly reduced; pSTAT3 in NK cells (splenic cNK cells; baseline and 2- and 5-minute exposure to H2O2): increased pSTAT3 at baseline; pSTAT5 in NK cells (splenic cNK cells; baseline and 2- and 5-minutes exposure to H2O2): highly induced; Ly49H+ cNK cell degranulation (CD107a) ([2]; 9 and 24 hours co-culture with m157-MEF, ECM coated 20 μg/cm2): potently blocked; IFNγ production by Ly49H+ cNK cells ([2]; exposed to m157-MEF, 9 and 24 hours): suppressed
